Experimental data published in patent US9771335B2 (THE JOHNS HOPKINS UNIVERSITY, priority 2015, dated 2017).
“Also recorded” adds a separate entry of the source.

Legend:
[1] = target: T1, hNav1.1 (Homo sapiens, UniProt P35498); experiment: Two-electrode voltage-clamp recording from Xenopus oocytes expressing hNav1.1 with β1; type: cell-based; conditions: for effect on hNav1.1 opening / gating (in words): G/Gmax vs DMSO control; for hNav1.1 Inactivation (V1/2), steady-state inactivation / hNav1.1 Activation (V1/2): 100 μM drug, Xenopus oocytes, DMSO 1% or less; for hNav1.1 Activation (V1/2): at least one hour incubation, ** = p<0.005 vs DMSO; for effect on hNav1.1 persistent current (in words): end of a 50 ms test pulse; for depolarizing shift in hNav1.1 channel activation voltage: vs DMSO control
T1 construct: host or cells: Xenopus oocytes (cRNA injection)

[2] = target: T2, hNav1.2 (Homo sapiens, UniProt Q99250); experiment: Two-electrode voltage-clamp recording from Xenopus oocytes expressing hNav1.2 with β1; type: cell-based; conditions: for effect on hNav1.2 opening / tested gating parameters (in words): 100 μM, vs DMSO control; for hNav1.2 Activation (V1/2) / hNav1.2 Inactivation (V1/2), steady-state inactivation: 100 μM drug, Xenopus oocytes, DMSO 1% or less
T2 construct: host or cells: Xenopus oocytes (cRNA injection)

[3] = target: T3, hNav1.3 (Homo sapiens, UniProt Q9NY46); experiment: Two-electrode voltage-clamp recording from Xenopus oocytes expressing hNav1.3 with β1; type: cell-based; conditions: for effect on hNav1.3 opening / tested gating parameters (in words): 100 μM, vs DMSO control; for hNav1.3 Activation (V1/2) / hNav1.3 Inactivation (V1/2), steady-state inactivation: 100 μM drug, Xenopus oocytes, DMSO 1% or less
T3 construct: host or cells: Xenopus oocytes (cRNA injection)

[4] = target: T4, hNav1.6 (Homo sapiens, UniProt Q9UQD0); experiment: Two-electrode voltage-clamp recording from Xenopus oocytes expressing hNav1.6 with β1; type: cell-based; conditions: for hNav1.6 Activation (V1/2) / hNav1.6 Inactivation (V1/2), steady-state inactivation: 100 μM drug, Xenopus oocytes, DMSO 1% or less
T4 construct: host or cells: Xenopus oocytes (cRNA injection)

[5] = target: T5, α1/β2/γ2 GABAA receptor (Homo sapiens, UniProt P14867+P18507+P47870); experiment: GABAA receptor activation in oocytes held at −70 mV; type: cell-based; conditions: 100 μM; 5 μM muscimol as activator control
T5 construct: expressed in transfected cells; host or cells: oocytes (heterologous expression inferred)
T5 sequence (P14867 28-456): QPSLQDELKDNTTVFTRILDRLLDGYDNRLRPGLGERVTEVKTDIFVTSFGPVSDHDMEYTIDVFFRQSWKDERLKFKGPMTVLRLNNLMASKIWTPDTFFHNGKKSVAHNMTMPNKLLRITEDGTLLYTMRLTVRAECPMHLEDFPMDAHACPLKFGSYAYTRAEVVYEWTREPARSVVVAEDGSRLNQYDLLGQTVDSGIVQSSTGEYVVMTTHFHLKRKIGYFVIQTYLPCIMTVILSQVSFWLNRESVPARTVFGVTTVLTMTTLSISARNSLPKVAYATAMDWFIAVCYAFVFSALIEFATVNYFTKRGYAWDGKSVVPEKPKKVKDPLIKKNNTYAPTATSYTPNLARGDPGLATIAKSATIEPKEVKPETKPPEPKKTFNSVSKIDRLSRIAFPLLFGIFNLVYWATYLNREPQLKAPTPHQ
T5 sequence (P47870 25-512 limits assumed): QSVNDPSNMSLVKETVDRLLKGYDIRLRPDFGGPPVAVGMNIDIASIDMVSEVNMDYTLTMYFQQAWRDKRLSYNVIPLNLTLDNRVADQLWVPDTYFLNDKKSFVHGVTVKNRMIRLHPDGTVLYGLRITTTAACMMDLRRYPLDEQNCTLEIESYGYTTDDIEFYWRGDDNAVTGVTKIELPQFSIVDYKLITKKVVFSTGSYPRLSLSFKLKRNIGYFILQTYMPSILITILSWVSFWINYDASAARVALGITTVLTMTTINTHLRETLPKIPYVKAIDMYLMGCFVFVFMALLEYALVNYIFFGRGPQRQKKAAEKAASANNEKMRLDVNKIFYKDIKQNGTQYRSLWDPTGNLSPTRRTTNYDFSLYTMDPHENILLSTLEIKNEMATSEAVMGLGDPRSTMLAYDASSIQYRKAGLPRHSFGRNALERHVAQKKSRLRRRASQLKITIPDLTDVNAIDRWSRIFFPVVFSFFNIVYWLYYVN
T5 sequence (P18507 40-475): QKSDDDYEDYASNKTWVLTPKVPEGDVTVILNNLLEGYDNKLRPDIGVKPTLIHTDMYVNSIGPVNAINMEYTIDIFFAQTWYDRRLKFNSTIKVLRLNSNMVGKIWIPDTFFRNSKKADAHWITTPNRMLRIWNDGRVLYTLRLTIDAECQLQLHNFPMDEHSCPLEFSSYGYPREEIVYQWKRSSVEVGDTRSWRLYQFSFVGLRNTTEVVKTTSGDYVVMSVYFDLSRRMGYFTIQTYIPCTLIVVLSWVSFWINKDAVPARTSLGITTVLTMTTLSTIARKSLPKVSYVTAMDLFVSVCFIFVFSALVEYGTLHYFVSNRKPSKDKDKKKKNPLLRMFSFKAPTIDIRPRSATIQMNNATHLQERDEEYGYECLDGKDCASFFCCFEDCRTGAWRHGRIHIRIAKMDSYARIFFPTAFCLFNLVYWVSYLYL
Description: Oocytes were kept at −70 mV throughout the experiment.

[6] = test system: picrotoxin-induced generalized seizures in male Cr1:CF1 mice; experiment: Picrotoxin seizure induction; type: in vivo
Description: (§1) Animal husbandry and drug administration. Male Cr1:CF1 mice (10-12 weeks old, Charles River) were housed under a 12 hour light-dark cycle with free access to food and water and all experiments were carried out between 10 am and 4 pm. 1-[phenyl-methyl]-1H-1,2,3-triazole-4-carboxamide-5-methyl (Compound B) (Sigma Aldrich) was suspended in a 40% solution of cyclodextrin (Sigma Aldrich) in sterile saline (0.9%) and 15 minutes prior to each seizure induction paradigm, 75 mg/kg of compound B was administered via intraperitoneal injection (ip) injection. Vehicle treated animals were similarly administrated 40% cyclodextrin and served as the controls for each experiment. The Emory University Institutional Animal Care and Use Committee approved all experimental protocols involving mice.
Seizure induction paradigms and analyses. Picrotoxin seizure induction—15 minutes prior to i.p. injection of picrotoxin (10 mg/kg, Sigma Aldrich), mice were administered vehicle or compound B (n=12 per group). Latencies to the first myoclonic jerk, forelimb clonus, and generalized tonic-clonic seizure were compared between compound B and vehicle-treated mice. The myoclonic jerk is characterized by a sudden jerk of the upper body whereas forelimb clonus involves rapid movement of the forelimbs for at least 5s. Finally, the generalized tonic-clonic seizure involves the loss of postural control with rapid movement of the limbs for at least 5s.
Statistical analysis. A Student's t-test was used to identify statistically significant differences in latencies between vehicle- and compound B-treated groups for each seizure phenotype following administration of flurothyl and picrotoxin. […] All data are presented as the mean±s.e.m.; p values <0.05 were considered significant.

[7] = test system: flurothyl-induced generalized seizures in male Cr1:CF1 mice; experiment: Flurothyl seizure induction; type: in vivo; conditions: 75 mg/kg ip, vs vehicle, p=0.6
Description: as §1
Flurothyl Seizure induction. Latencies to flurothyl-induced seizures were determined as previously described (Neurobiol Dis 49C, 211-220 (2012)). Briefly, flurothyl (2,2,2-trifluroethylether; Sigma Aldrich) was dispensed at a rate of 20 μl/minute into a Plexiglas chamber and latencies to three behavioral phenotypes were compared between vehicle-treated and compound B-treated (75 mg/kg) mice (n=12 per group): 1) the first myoclonic jerk, 2) a generalized tonic-clonic seizure, and 3) a generalized tonic-clonic seizure with tonic extension. […]

[8] = test system: 6 Hz (17 mA) induced partial seizures in male Cr1:CF1 mice; experiment: 6 Hz psychomotor seizure induction; type: in vivo; conditions: 75 mg/kg ip, p<0.0001
Description: as §1
6 Hz psychomotor seizure induction. Topical anesthetic (0.5% tetracaine hydrochloride ophthalmic solution) was applied to the cornea 30 minutes before testing. Fifteen minutes prior to seizure induction, mice were administrated vehicle or compound B (n=12 per group). Each mouse was manually restrained and corneal stimulation (0.2 ms pulse, 6 Hz, 3s) was performed at a current intensity of 17 mA (ECT Unit 57800; Ugo Basile, Comerio Italy). […]

[9] = Solubility of rufinamide; type: physicochemical
[10] = 75 mg/kg ip 15 minutes prior to picrotoxin 10 mg/kg, vs vehicle

Compound | effect on hNav1.1 opening / gating (in words) ([1]; 100 μM) | effect on hNav1.2 opening / tested gating parameters (in words) [2] | effect on hNav1.3 opening / tested gating parameters (in words) [3] | hNav1.1 Inactivation (V1/2), steady-state inactivation [1] [mV] | hNav1.1 Activation (V1/2) [1] [mV] | effect on hNav1.1 persistent current (in words) ([1]; 100 μM) | effect on hNav1.6 opening / tested gating parameters (in words) ([4]; 100 μM, vs DMSO control) | also measured
1-[(2,6-difluorophenyl)methyl]-1H-1,2,3-triazole-carboxymethyl-5-methyl [Compound L] | only slightly inhibits hNav1.1 opening | not significant | not significant |  |  |  |  | effect on hNav1.6 steady-state inactivation (in words) ([4]; 100 μM): dramatically affect hNav1.6 steady-state inactivation
NC(=O)c1nnn(Cc2cccc(F)c2)c1N [Compound A, 1-[(3-fluorophenyl)methyl]-1H-1,2,3-Triazole-4-carboxamide-5-amine] | clearly inhibit hNav1.1 opening |  |  | −50.5 ± 1.2 | −30.8 ± 1.0 | neither of these compounds influences |  | 
Cc1c(C(N)=O)nnn1Cc1ccccc1 [Compound B, 1-[phenyl-methyl]-1H-1,2,3-Triazole-4-carboxamide-5-methyl] | more efficaciously when compared to rufinamide; also recorded: clearly inhibit hNav1.1 opening | unaltered | unaltered | −49.4 ± 0.3 | −27.4 ± 1.0 | do not affect persistent current | unaltered | effect on entry or voltage-dependence of hNav1.1 slow inactivation (in words) [1]: do not influence; depolarizing shift in hNav1.1 channel activation voltage ([1]; 100 μM): ~+11 mV; Voltage-dependence of SI (V), V1/2 of hNav1.1 slow inactivation ([1]; oocytes expressing hNav1.1, Boltzmann fit): −43.2 ± 1.3 mV; Entry into SI (T), time constant of entry into hNav1.1 slow inactivation ([1]; oocytes expressing hNav1.1, single exponential fit): 5.5 ± 0.4 s; hNav1.2 Activation (V1/2) [2]: −23.6 ± 1.1 mV; hNav1.2 Inactivation (V1/2), steady-state inactivation [2]: −53.6 ± 1.2 mV; hNav1.3 Activation (V1/2) [3]: −25.8 ± 1.4 mV; hNav1.3 Inactivation (V1/2), steady-state inactivation [3]: −50.0 ± 0.8 mV; hNav1.6 Activation (V1/2) [4]: −23.8 ± 1.9 mV; hNav1.6 Inactivation (V1/2), steady-state inactivation [4]: −62.6 ± 0.7 mV; activation of the α1/β2/γ2 GABAA receptor (in words) [5]: do not activate; also recorded: do not evoke inward GABAA-mediated currents; frequency of the behavioral seizures vs vehicle, picrotoxin ([6]; 75 mg/kg ip): no difference; average latency to forelimb clonus (FC), picrotoxin [6, 10]: no statistically significant differences; average latency to the first myoclonic jerk (MJ), picrotoxin [6, 10]: no statistically significant differences; average latency to the MJ, flurothyl [7]: comparable; severity of seizures vs vehicle (modified Racine scale), 6 Hz [8]: dramatically less severe; also recorded: typically less severe
OCc1cn(Cc2cccc(F)c2)nn1 [Compound C, 1-[(3-fluorophenyl)methyl]-1H-1,2,3-Triazole-4-hydroxymethyl] | does not influence hNav1.1 gating; also recorded: no longer affects hNav1.1 opening |  |  | −49.2 ± 0.6 | −38.4 ± 1.3 |  |  | 
NC(=O)c1nnn(Cc2ccc(F)cc2)c1N [Compound D, 1-[(4-fluorophenyl)methyl]-1H-1,2,3-Triazole-4-carboxamide-5-amine] | not significant |  |  | −49.8 ± 1.6 | −32.5 ± 2.3 |  |  | 
CCc1c(C(N)=O)nnn1Cc1ccccc1 [Compound F, 1-(phenylmethyl)-1H-1,2,3-triazole-4-carboxamide-5-ethyl] | inhibits hNav1.1 opening | not significant | not significant |  |  | does not influence | not significant | effect on hNav1.1 steady-state inactivation (in words) ([1]; 100 μM): does not influence; depolarizing shift in hNav1.1 channel activation voltage ([1]; 100 μM): ~+12 mV
COC(=O)c1nnn(Cc2c(F)cccc2F)c1C [Compound L, 1-[(2,6-difluorophenyl)methyl]-1H-1,2,3-triazole-carboxymethyl-5-methyl] | much smaller compared to compound B |  |  |  |  |  |  | shift of midpoint of hNav1.6 channel availability (steady-state inactivation) ([4]; 100 μM, vs DMSO control): ~−20 mV
NC(=O)c1cn(Cc2c(F)cccc2F)nn1 [Rufinamide, 1-[(2,6-difluorophenyl)methyl]-1H-1,2,3-Triazole-4-carboxamide, reference compound] | dramatic depolarizing shift; also recorded: inhibits hNav1.1 opening | not inhibited | not inhibited | −47.8 ± 1.6 | −30.6 ± 0.9 | do not affect persistent current | not inhibited; also recorded: not significant | effect on entry or voltage-dependence of hNav1.1 slow inactivation (in words) [1]: do not influence; hNav1.2 Activation (V1/2) [2]: −29.5 ± 1.2 mV; hNav1.2 Inactivation (V1/2), steady-state inactivation [2]: −57.7 ± 0.5 mV; hNav1.3 Activation (V1/2) [3]: −24.5 ± 2.4 mV; hNav1.3 Inactivation (V1/2), steady-state inactivation [3]: −52.6 ± 1.6 mV; hNav1.6 Activation (V1/2) [4]: −28.1 ± 0.8 mV; hNav1.6 Inactivation (V1/2), steady-state inactivation [4]: −60.0 ± 0.7 mV; activation of the α1/β2/γ2 GABAA receptor (in words) [5]: do not activate; also recorded: do not evoke inward GABAA-mediated currents; solubility ([9]; DMSO, organic solvent or mixture): ≤ 9 mg/mL; solubility in water ([9]; water): slightly soluble
